From patent US20210353579A1, “HIGH PENETRATION COMPOSITIONS AND USES THEREOF” (Techfields Pharma Co., Ltd., priority 2006, published 2021)
Read-outs that look alike come from different tables or passages of the source.

Key:
[1] = Plasma levels after transdermal administration to hairless mice; assay type: in vivo; details: mouse, in vivo
Method: Tested compounds (20% solution or suspension in 1 mL isopropanol) are administered transdermally to the skin of intact hairless mice. The plasma levels of the parent compounds are determined by HPLC.

rats = assay: Antipyretic activity, E. coli suspension as pyrogen; assay type: in vivo; details: 100 mg/kg transdermally; in °C (unit assumed)
Method: Rats are administered with sterilized E. coli suspension as a pyrogen. Each group of rats are administered with a prodrug compounds or parent compounds at a dosage specified below. The prodrug compounds are administered either orally or transdermally. The parent compounds are administered orally.

human skin tissue = details: pH 7.4
Chinese white rabbits = assay: Malassezia-induced lesions similar to psoriasis; assay type: in vivo, rabbit; details: 5% aqueous solution twice per day, 10 days after application
From the text: Heavy suspensions of Malassezia [Rosenberg, E. W., et al., Mycopathologia, 72, 147-154 (1980)] were applied to the shaved skin on the backs of the Chinese white rabbits (n=4×6) twice (at 7 am and 7 pm) per day for 2 weeks, lesions similar to psoriasis resulted.

mice = assay: Analgesic activity, acetic acid writhing; assay type: in vivo; details: 100 mg/kg transdermally, 30 min before acetic acid
Method: The prodrug compounds are administered either transdermally or orally. The parent compounds are administered orally. The number of writhing that occurred when mice are administered the acetic acid solution are counted, and the rate of inhibition based on the control group which was not pretreated with any test compounds is calculated. […] The A group is the control group.
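Wherever LD50 of HPP is given: acute toxicity in rats expressed as LD50, determined for both prodrugs and their parent compounds.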

Structure (SMILES)	LD50 of HPP (rat; rats)	Peak plasma concentration of parent compound after prodrug compound [1]	t, time to peak plasma level of parent compound after prodrug compound [1]	body temperature, t = 0 min (rats)	body temperature, t = 90 min (rats)	body temperature, t = 180 min (rats)	body temperature, t = 270 min (rats)	In vitro penetration rate (apparent flux), prodrug compounds (human skin tissue)	lesions similar to psoriasis (Chinese white rabbits)	% (rate of writhing inhibition) (mice)	No. of Writhing (mice)	LD50 of HPP (rat; rat, in vivo)
CC(=O)O.CCN(CC)CCOC(=O)Cc1sc(-c2ccccc2)nc1-c1ccc(Cl)cc1 [diethylaminoethyl 4-(4-chlorophenyl)-2-phenyl-5-thiazoleacetate.AcOH]	1200 mg/kg	20 mg/L	50 min	37.23 ± 0.06	36.81 ± 0.05	36.75 ± 0.08	36.71 ± 0.07	1300 μg/cm^2/h	the lesions were resolved	54%	16.1	–
C=CCOc1ccc(CC(=O)OCCN(CC)CC)cc1Cl.CC(=O)O [diethylaminoethyl 3-chloro-4-(2-propenyloxy)benzeneacetate.AcOH]	3000 mg/kg	20 mg/L	50 min	37.23 ± 0.07	36.80 ± 0.06	36.70 ± 0.05	36.67 ± 0.08	1000 μg/cm^2/h	the lesions were resolved	55%	15.7	–
CC(=O)O.CCc1cccc2c3c([nH]c12)C(CC)(CC(=O)OCCN(CC)CC)OCC3 (centres unmarked) [diethylaminoethyl 1,8-diethyl-1,3,4,9-tetrahydropyrano-[3,4-b]indole-1-acetate.AcOH]	600 mg/kg	20 mg/L	50 min	37.23 ± 0.06	36.65 ± 0.06	36.58 ± 0.08	36.60 ± 0.07	1300 μg/cm^2/h	the lesions were resolved	60%	14.0	–
CC(=O)O.CCN(CC)CCOC(=O)COC(=O)Cc1c(C)n(C(=O)c2ccc(Cl)cc2)c2ccc(OC)cc12 [diethylaminoethyl 1-(4-chlorobenzoyl-5-methoxy-2-methyl-1H-indole-3-acetoxyacetate.AcOH]	–	20 mg/L	50 min	37.21 ± 0.06	36.75 ± 0.05	36.62 ± 0.08	36.58 ± 0.07	1200 μg/cm^2/h	the lesions were resolved	55%	15.6	1200 mg/kg
